Tested on: RSV minigenome transcription and RNA replication
Assay: RSV minigenome assay in BSR-T7 cells
Assay type: cell-based, respiratory syncytial virus
Protocol: RSV transcription and RNA replication were analyzed using a replication-deficient minigenome, in which the minigenome template contained a single nucleotide substitution in the trailer region, limiting it to the antigenome step of RNA replication and uncoupling transcription from replication. Minigenome transcription and replication were reconstituted intracellularly. BSR-T7 cells, a T7 RNA polymerase expressing cell line, were cultured in a 6-well dish and transfected with T7-driven plasmids that expressed the minigenome template (200 ng/ well), and the RSV proteins N (400 ng/ well), P (200 ng/ well), L (100 ng/ well) and M2-1 (100 ng/ well). Transfections were performed using Lipofectamine (Thermofisher) according to the manufacturer’s directions. […] Input minigenome RNA, antigenome RNA, and mRNAs were detected by subjecting RNA to electrophoresis in 1.5% agarose-formaldehyde gels in MOPS buffer, followed by Northern blotting using ^32P labeled riboprobes specific to negative sense minigenome (to detect the input RNA) and to positive sense antigenome and mRNAs. The same RNA samples were also analyzed by primer extension using ^32P end-labeled primers corresponding in sequence to nucleotides 15–39 of the leader region (to detect RNA initiated from the +1U and +3 C sites on the promoter). […] Quantification was performed by phosphorimage analysis. […]

COc1cc(C(=O)NC[C@](O)(c2cc(C(C)(C)O)c(F)c(-c3ccc(F)cc3)n2)C(F)(F)F)cc2cc(C)nnc12 [JNJ-8003]
antigenome RNA and mRNA (in words): dose dependent reduction
